The values that follow come from patent US20080318912A1, “Medicaments for Treating Chronic Respiratory Disease” (priority 2004, published 2008).

In series [1] the test system is TS induced inflammation (cells recovered in the BAL). As to the kind of experiment: Tobacco smoke (TS) induced inflammation, BAL cell counts 24 h after 11 daily exposures. The class given is in vivo, A/J mice. Particulars: for Inhibition, Eosinophils (BAL) / Inhibition, Epithelial Cells (BAL) / Inhibition, Lymphocytes (BAL) / Inhibition, Macrophages (BAL) / Inhibition, Neutrophils (BAL) / Inhibition, Total Cells (BAL): 11 daily TS exposures. The text has this:
Female inbred AJ mice (body weights on initial day of use: 17.2-27.4 g) were obtained from Harlan, full barrier bred and certified free from specified micro-organisms on receipt. The mice were housed, up to 5 per cage, in individually ventilated, polycarbonate solid bottomed cages (IVC) with grade 8 aspen chip bedding. Environment (airflow, temperature and humidity) within the cages was controlled by the IVC system (Techniplast). Food (RM 1, Special Diet Services) and water were provided ad libitum. Individual animals were identified by unique coloured “pentel” markings on their tails, weighed and randomly assigned to treatment groups.
The required quantity of compound was placed into a mortar. Half the required volume CMC was slowly added to form a fine paste and then this was carefully added back to a container. The residual volume of CMC required to achieve the required dose is used to wash out the mortar and the washings added back to the container. For the combination dose, each compound was formulated at double the final required concentration and an equal volume of each compound added together. […]
In this exposure protocol, mice were exposed in groups of 5 in individual clear polycarbonate chambers (27 cm×16 cm×12 cm). The TS from the cigarettes was allowed to enter the exposure chambers at a flow rate of 100 ml/min. In order to minimise any potential problems caused by repeated exposure to a high level of TS (6 cigarettes), the exposure of the mice to TS was increased gradually over the exposure period to a maximum of 6 cigarettes. The exposure schedule used in this study was as follows:
(§1) The trachea was cannulated using a Portex nylon intravenous cannula (pink luer fitting) shortened to approximately 8 mm. Phosphate buffered saline (PBS) containing heparin (10 units/ml) was used as the lavage fluid. A volume of 0.4 ml was gently instilled and withdrawn 3 times using a 1 ml syringe and then placed in an Eppendorf tube and kept on ice prior to subsequent determinations.
(§2) Lavage fluid was separated from cells by centrifugation and the supernatant decanted and frozen for subsequent analysis. The cell pellet was re-suspended in a known volume of PBS and total cell numbers calculated by counting a stained (Turks stain) aliquot under a microscope using a haemocytometer.
(§3) The residual cell pellet was diluted to approximately 10^5 cells per ml. A volume of 500 μl was placed in the funnel of a cytospin slide and centrifuged for 8 min at 800 rpm. The slide was air dried and stained using ‘Kwik-Diff’ solutions (Shandon) as per the proprietary instructions. When dried and cover-slipped, differential cells were counted using light microscopy. Up to 400 cells were counted by un biased operator using light microscopy. Cells were differentiated using standard morphometric techniques.
In addition, animals receiving steroid or the steroid combination were dosed with steroid 20 h prior to the first TS exposure. The control group of mice (shams) received vehicle on days 1 to 11 and were exposed to air daily for a maximum of 50 minutes per day. BAL was performed on day 12, 24 h following the eleventh and final TS exposure.
Since tests for normality were positive the data was subjected to a one way analysis of variance test (ANOVA), followed by a Bonferroni correction for multiple comparisons in order to test for significance between treatment groups. A “p” value of <0.05 was considered to be statistically significant. Percentage inhibitions were automatically calculated within the Excel spreadsheets for the cell data using the formula below: […]
Animals were sacrificed 24 h post the final exposure to TS/air. A BAL was performed and the total number of cells recovered counted. Data are presented as individual points and the mean values shown. Data are from 9-10 animals per group. Statistical analysis was by ANOVA. A “p” value of <0.05 was considered statistically significant. ns=not statistically significant.

The subject of series [2] is LPS induced increases in BAL cells. Kind of series: LPS challenge induced inflammation, BAL cell counts 24 h post challenge. Format: in vivo, A/J mice. How it is done: Previous studies have shown that peak BAL neutrophilia is achieved 24 h post intranasal challenge with LPS at 0.3 μg. In the studies reported here this dose of LPS and this time point were employed. Control animals received phosphate buffered saline (PBS) intranasally.
Approximately 3 min prior to intra-nasal challenge anaesthesia was induced by isofluorane inhalation. Vehicle (PBS) or LPS was instilled at 50 μl per mouse. The LPS concentration was 6 μg/ml (0.3 μg per mouse). Animals were allowed to recover in a heated box at 37° C. and then returned to the home cage.
as §1, §2, §3
Animals were sacrificed 24 h post the LPS challenge. A BAL was performed and the total number of cells recovered counted. Data are presented as individual points and the mean values shown. Data are from 9-10 animals per group. Statistical analysis was by ANOVA. […]

Series [3] in a line: Pharmacokinetic evaluation of plasma levels of theophylline after oral dosing. The class given is in vivo, A/J mice. Particulars: for concentration at 15 min / concentration at 30 min / concentration at 60 min / concentration at 240 min: A/J, mouse, plasma; for concentration at 15 min: 15 minutes post dosing; for concentration at 60 min: 60 minutes post dosing; for concentration at 240 min: 240 minutes post dosing. As to the method: The collected blood was mixed and decanted into eppendorf tubes before centrifugation in a microftige. Plasma was collected and stored at −80° C. prior to analysis by an HPLC/MS/MS method. The equipment used in the measurement of plasma levels were a Micromann Quatro Micro Mass Spectrometer (Micromass UK Limited) and a Waters 2795 Alliance HT liquid chromatograph (Waters USA).
Samples were prepared for analysis by adding 200 μl of acetonitrile (containing 0.25 mg/l dextrorphan as an internal standard) to 50 μl of each thawed sample and standard and mixed vigorously. Each sample and standard was then centrifuged at 1000 g for 2 minutes and the supernatant removed for LC-MS/MS analysis.
Analysis of theophylline and dextrorphan was carried out using reverse phase HPLC with tandem mass spectrometric detection (LC-MS/MS). Positive ions for parent compound and a specific fragment product were monitored in a Multiple Reaction Monitoring mode using a Micromass Quatro Micro Mass Spectrometer with Micromass MassLynx software version 4.0. A 25 μl aliquot of each sample and standard was injected onto the liquid chromatography system.

The conditions of series [4]: 250 or 375 mg theophylline with 400 μg budesonide twice daily, asthma patients; cited from earlier work.
A further series concerns phosphodiesterases. The conditions noted are these: cited from earlier work.
Series [5] concerns adenosine receptors (A1 and A2 receptors). Particulars: at therapeutic concentrations; cited from earlier work.
For series [6] the following is noted: cited from earlier work.
Where [7] appears, read: dexamethasone 0.3 mg/kg p.o. twice daily, BAL 24 h post.
The mark [8] stands for this setting: dexamethasone 0.3 mg/kg p.o. at -20, -1 and 6 h relative to LPS (0.3 μg i.n.), BAL 24 h post challenge.
Setting [9] is: theophylline 3 mg/kg p.o. twice daily, BAL 24 h post.

Each structure is given as a SMILES string. Read-outs that look alike come from different tables or passages of the source.

In the case of `C[C@@H]1C[C@H]2[C@@H]3CCC4=CC(=O)C=C[C@]4(C)[C@@]3(F)[C@@H](O)C[C@]2(C)[C@@]1(O)C(=O)CO` [Dexamethasone, dexamethasone], in series [1] (setting [7]), the “Inhibition, Eosinophils (BAL)” value is recorded as −94%; the “Inhibition, Epithelial Cells (BAL)” value is recorded as −20%; the “Inhibition, Lymphocytes (BAL)” value is −7%; the “Inhibition, Macrophages (BAL)” value was −14%. Besides, in series [1] (setting [7]), the “Inhibition, Neutrophils (BAL)” value was −46% and the “Inhibition, Total Cells (BAL)” value is given as −16%. In addition, in series [2] (setting [8]), the “Reduction of neutrophils in BAL” value worked out at 71% and the “Reduction of total cells in BAL” value came out at 68%.

Take `Cn1c(=O)c2[nH]cnc2n(C)c1=O` [Theophylline, 3,7-dihydro-1,3-dimethyl-1H-purine-2,6-dione]: in series [1] (theophylline 3 mg/kg alone p.o., 1 h prior to and 6 h post TS, 11 days), the “Inhibitory effect on any of the specific cell types (BAL)” value is “No statistically significant inhibitory effect”. For the same compound, in series [1] (theophylline 3 mg/kg p.o. twice daily (-1 h and +6 h), BAL 24 h post final exposure), the “Inhibition, Total Cells (BAL)” value is given as −11%. In addition, in series [1] (setting [9]), the “Inhibition, Eosinophils (BAL)” value was −56%; the “Inhibition, Epithelial Cells (BAL)” value is −18%; the “Inhibition, Lymphocytes (BAL)” value is 1%; the “Inhibition, Macrophages (BAL)” value is recorded as −4%. The “Inhibition, Neutrophils (BAL)” value in series [1] (setting [9]) is listed as −10%. Moreover, in series [1] (theophylline given alone), the “Anti-inflammatory activity in the COPD (TS) model” value is “failed to demonstrate any significant anti-inflammatory activity”. Besides, the “Activity on LPS induced pulmonary inflammation” value in series [2] (theophylline at the dose level tested (0.3 mg/kg p.o.)) is given as “without activity”. Further, in series [3] (oral dose 0.3 mg/kg, mean ± SD), the concentration at 15 min amounted to 130 ± 6 ng/mL, the concentration at 60 min stood at 256 ± 198 ng/mL and the concentration at 240 min worked out at 65 ± 11 ng/mL. Besides, the concentration at 30 min in series [3] (oral dose 0.3 mg/kg, 30 minutes post dosing, mean ± SD) was found to be 140 ± 25 ng/mL. Also, in series [3] (oral dose 1 mg/kg, mean ± SD), the concentration at 15 min was determined as 740 ± 760 ng/mL, the concentration at 60 min came out at 410 ± 84 ng/mL and the concentration at 240 min amounted to 60 ± 15 ng/mL. In series [3] (oral dose 1 mg/kg, 30 minutes post dosing, mean ± SD), this compound had a concentration at 30 min of 660 ± 122 ng/mL. Moreover, in series [3] (oral dose 3 mg/kg, mean ± SD), the concentration at 15 min stood at 1860 ± 290 ng/mL, the concentration at 60 min stood at 1470 ± 110 ng/mL and the concentration at 240 min was found to be 90 ± 100 ng/mL. The concentration at 30 min in series [3] (oral dose 3 mg/kg, 30 minutes post dosing, mean ± SD) was determined as 3660 ± 2640 ng/mL. Moreover, in series [3] (oral dose 0.3 mg/kg), the “Plasma concentrations at all time points” value is “less than 1 mg/l”. The “Time of peak levels” value in series [3] (oral dose 3 mg/kg) was 30 min. In addition, in series [3] (oral dose 3 mg/kg, 30 minute time point, single animal), the “Plasma level of the one animal above 5 mg/l” value came out at 6.7 mg/A. The “Plasma Levels” value in series [3] (oral dose 3 mg/kg, 30 minutes post dosing, mean ± SD, 3 mg/kg) came to 3660 ± 2640 ng/mL. The “Plasma concentration achieved (median value)” value in series [4] is 8700 ng/mL. Also, in the series on phosphodiesterases, the Inhibition of phosphodiesterases result was “weak and nonselective inhibitor”. Moreover, the “Inhibition of adenosine receptors (antagonism of A1 and A2 receptors)” value in series [5] is “potent inhibitor”. In addition, the Bioavailability in series [6] (absorption from the gastrointestinal tract) is on record as 90-100%. Also, the Mean plasma half-life result in series [6] (adults) is “about 8 hours”. In series [6] (in vivo), the “Plasma levels regarded as being necessary for anti-inflammatory efficacy” value was 10000 to 20000 ng/mL. The Plasma half-life result in series [6] (premature neonates) is on record as “approximately 30 hours”. Besides, the “Time to peak levels following ingestion” value in series [6] (slowed by the presence of food) was 1 to 2 h. Also, the Plasma half-life entry in series [6] (up to the age of 20) is “approximately 3.5 hours”.
